These results are taken from publication PMC4818977 (ChemMedChem, 2016).

One series addresses FimH (Escherichia coli, UniProt Q1R2J4). The class given is cell-based, uropathogenic E. coli (UPEC) strain UTI89. To be noted: for HAI: hemagglutination inhibition titer (EC>90, Figure 5 legend).
Another series deals with UPEC biofilm formation. Put plainly: biofilm prevention assay. The series is classed as cell-based, uropathogenic E. coli (UPEC) strain UTI89. Conditions: read-out: Biofilm IC50.
Another series concerns the target FimH lectin domain (Escherichia coli, UniProt P08191). Further details: species or system uropathogenic E. coli (UPEC). Conditions: melting temperature of FimH lectin domain, relative binding strength.
Series [1] is described as follows: i.v./p.o. crossover PK study in rat. The series is classed as in vivo.
Series [2] is described as follows: in vivo mouse PK, urine mannoside concentration. To be noted: mice, 50 mgkg^−1 oral gavage, 10% cyclodextrin, 1 h post-dosing.
Series [3] relates to UTI89 chronically infected mice. Put plainly: murine model of chronic UTI. The class given is in vivo. To be noted: 50 mgkg^−1 p.o., 10% cyclodextrin, 6 h post-dosing.

Molecules are shown by their SMILES. pIC50: −log10 of the molar value. Read-outs that look alike come from different tables or passages of the source.

Chain of FimH lectin domain (P08191 22-179): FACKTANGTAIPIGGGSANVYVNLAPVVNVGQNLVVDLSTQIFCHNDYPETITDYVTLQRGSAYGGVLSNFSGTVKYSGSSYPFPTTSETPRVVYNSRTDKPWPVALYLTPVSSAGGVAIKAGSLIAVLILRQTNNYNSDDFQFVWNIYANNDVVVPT

As for `COC(=O)c1cccc(-c2ccc(O[C@H]3O[C@H](CO)[C@@H](O)[C@H](O)[C@@H]3O)cc2)c1` [Compound 2], the HAI at FimH came to 1.0 µM. In the series on UPEC biofilm formation (biofilm prevention), the pIC50 (commonly −log10 of the IC50, conventionally taken in molar units) is 6.03. Moreover, the “DSF Tm” value on FimH lectin domain stood at 73.4 °C.

`Cc1cc(-c2ccc3cc[nH]c(=O)c3c2)ccc1O[C@H]1O[C@H](CO)[C@@H](O)[C@H](O)[C@@H]1O` [Compound 22, 2-methyl-4-(1-oxo-1,2-dihydroisoquinolin-7-yl)phenyl α-D-mannopyranoside] registered an HAI at FimH of 0.031 µM. The “increase in activity in HA assay relative to 16 and 17, respectively” value at FimH (ortho-methyl matched pairs) is “fourfold”. Besides, the pIC50 with UPEC biofilm formation (Escherichia coli) is 6.89. For the same molecule, the “DSF Tm” value at FimH lectin domain came out at 75.5 °C. Also, the “Rat F” value in series [1] (10 mgkg^−1 oral (p.o.) dose, 10% cyclodextrin formulation) came out at 7.0%. In series [1] (calculated from a 10 mgkg^−1 oral (p.o.) dose, 10% cyclodextrin formulation), the “Rat CL” value was 408 mLmin^−1kg^−1. Also, the half-life (as a rule, the time needed for the level to fall by half in the phase considered) in series [1] (rat, in vivo, po, 10 mgkg^−1) is under 3 h. Further, the initial urine concentration entry in series [2] is on record as “elevated relative to 5”. In series [3], the “additional drop in CFUs per bladder relative to 5, 7 (and 17b)” value came to 10 fold.
